Experimental findings from patent US10815219B2, “2,4-diaminoquinazoline derivatives for inhibiting endoplasmic reticulum (ER) stress” (The Board of Regents of the University of Oklahoma, priority 2017, dated 2020) are described below.

Assay [1] has as its system βTC6 cells. The experiment in a line: βTC6 cell viability after Tm treatment (CellTiter-Glo). The class given is cell-based. The conditions noted are these: Tm 0.25 μg/mL, 72 h, FIG. 3B. The text has this: To rule out the possibility of an ATP-specific (rather than viability) effect of the compounds, we used the MTT assay, which measures the activity of NAD(P)H-dependent cellular oxidoreductase enzymes, as an orthogonal method to measure cell viability. […] To confirm that the protective effect of 9c on β cells is not INS-1 cell-specific, another β cell line, βTC6, was used. […] To determine whether the protective effect of 9c on β cells is specific to Tm-induced stress, we used another ER stressor, BFA, which inhibits a key guanine nucleotide exchange factor essential for the transport of proteins from the ER to the Golgi, to treat INS-1 cells.
INS-1 cells or βTC6 cells were seeded at 3×10^3 cells/well in a 384-well plate and treated with compounds at the indicated concentrations. After 3 d treatment, the medium was aspirated and 20 μL/well of CellTiter-Glo reagent (Promega, WI, USA) was added for the detection of intracellular ATP levels. Cell viability was measured with an EnVision multilabel plate reader (PerkinElmer, MA, USA).

The test system of assay [2] is primary human β cells. In words: TUNEL staining of primary human islet β cells treated with Tm. The assay is classed as cell-based. The note with it: primary human islets, Tm 1 μg/mL, 9c 10 μM, 48 h; Tm alone 15%, DMSO 2.5%. The source says:
(§1) We determined whether 9c suppresses the apoptosis of primary human β cells induced by Tm treatment as assessed by TUNEL, which detects fragmentation of DNA, a marker of apoptotic cell death. […] Next, we investigated whether 9c restored the Tm-induced insulin secretion defect. […] ER stress induces activation of three branches of UPR (PERK, IRE1α, and ATF6), leading to up-regulation of ATF4, XBP1s, Bip, […], CHOP and eventual activation caspase 3 and cell apoptosis, while diminishing the expression of PDX1, MAFA and insulin genes, leading to β cell dysfunction. Compound 9c protects β cell against ER stress-mediated dysfunction and death by down-regulating ATF4, XBP1s, Bip, GRP94, CHOP, and caspase 3 and up-regulating PDX1, MAFA and insulin genes.
Primary human islets were washed with PBS and fixed with 4% paraformaldehyde for 30 min. Fixed cells were then blocked in 5% normal donkey serum for 30 min. Polyclonal guinea pig anti-insulin (A0564, Dako, 1:500 dilution) was used as primary antibody. Donkey Cy3 anti-guinea pig IgG was used as the secondary antibody. TUNEL staining was performed with In Situ Cell Death Detection Kit-Fluorescein (Roche) according to the manufacturer's instructions. DAPI was used for nuclear counter-staining. Images were taken with an Olympus FV1000 confocal microscope.

The test system of assay [3] is cleaved caspase-3 and PARP. The experiment in a line: Western blotting of cleaved caspase-3 and cleaved PARP in Tm-treated INS-1 cells. The assay is classed as cell-based, rat. The note with it: Tm 0.1 μg/mL, 9c 20 μM, 24 h, FIG. 4A. How it is done: To determine whether the increase in cell viability following treatment with 9c was caused by a suppression of apoptotic cell death, levels of cleaved caspase-3 and cleaved PARP were assessed by Western blotting. Caspase-3, a member of executioner caspases, plays essential roles in initiating apoptotic signaling and executing the final stages of cell death as it is responsible for the proteolytic cleavage of many key proteins, such as the nuclear enzyme poly (ADP-ribose) polymerase (PARP) which is a family of proteins involved in a number of cellular processes involving DNA repair and cell death. […] However, upon severe ER stress, caspase 3 undergoes proteolytic cleavage to produce two subunits that dimerize to form the active enzyme, which in turns cleaves PARP.
(§2) INS-1 cells were seeded in 60-mm dishes at 8×10^5 cells/dish and treated for the indicated times. Cells were then washed with PBS and lysed with lysis buffer (Cell Signaling Technology, Danvers, Mass.) containing EDTA (Thermo, IL) and phosphatase inhibitors (Thermo). Aliquots of 20 μg total protein were separated on 7% SDS-PAGE gels (Life Technologies) and transferred to PVDF membranes (Life Technologies). The membranes were probed with primary antibodies followed by the appropriate HRP-conjugated secondary antibodies (goat anti-rabbit IgG and goat anti-mouse IgG, 1:3000; Santa Cruz Biotechnology, CA, USA). […]

The test system of assay [4] is ATF4 and CHOP protein. The experiment in a line: Western blotting of ATF4 and CHOP in Tm-treated INS-1 cells. The assay is classed as cell-based, rat. The conditions noted are these: Tm 0.1 μg/mL, 9c 20 μM, FIG. 8C.
From the text: We then determined the effect of 9c on the activation of the PERK pathway in β cells under ER stress. Activated PERK phosphorylates eukaryotic translation initiator factor 2a (eIF2α), which in turn attenuates general protein synthesis to relieve ER load. EIF2α phosphorylation also allows the selective translation of ATF4 mRNA, which encodes a transcription factor that induces the expression of the pro-apoptotic gene C/EBP-homologous protein (CHOP). Thus, we used ATF4 and CHOP expression levels as markers of PERK pathway activation. […] Together, our results that 9c inhibited the ER stress-mediated activation of all three UPR pathways indicate that 9c protects β cell survival by alleviating ER stress.
as §2, with “USA). Blots were then developed.” for “USA).”

Assay [5] concerns primary human islets. In words: Glucose-stimulated insulin secretion in Tm-treated primary human islets. The assay is classed as cell-based. The conditions noted are these: Tm 1 μg/mL, 48 h, 20 mM glucose, FIG. 9C.
From the text: as §1
INS-1 or primary human islet cells were plated in 96-well plates. The second day, Tm and compound 9c were added and maintained for 24 h (INS-1) or 48 h (human islets). […] The secreted insulin was measured with insulin ELISA kits (for mouse insulin from Millipore and for human insulin from LifeTech). Cells were lysed with RIPA buffer (50 mM Tris HCl pH 7.4, 1% NP-40, 0.25% sodium deoxycholate, 150 mM NaCl), and total cellular protein was determined with a Bradford protein assay. […]

As to `COc1ccc(CNc2nc(N3CCCCC3CO)nc3ccccc23)cc1` (racemic) [Compound 9c, (1-(4-((4-methoxybenzyl)amino)quinazolin-2-yl)piperidin-2-yl)methanol], the “viability of βTC6 cells (intracellular ATP level)” value in assay [1] is “rescued the viability of βTC6 cells in a dose-dependent manner”. Also, in assay [2], the “percentage of TUNEL+ insulin+ cells” value stood at 3.5%. Also, the “cleaved caspase-3 and cleaved PARP protein levels” value in assay [3] was “significantly reversed Tm-induced cleavage of both caspase-3 and PARP”. Also, the “ATF4 and CHOP protein levels” value in assay [4] was “decreased ATF4 and CHOP protein levels”. The “glucose-stimulated insulin secretion (GSIS)” value in assay [5] was “significantly reversed this effect and restored the Tm-impaired GSIS”.
